Series [1] can be described thus: Plasma protein binding (equilibrium dialysis). It is filed as in vitro ADME. The settings on record: female, CD1, mouse, read-out: Fraction unbound (blood). The method, then:
for 1 minute and then centrifuged at 3000 rpm in 96-well blocks for 15 minutes (Allegra X12-R, Beckman Coulter, USA). All samples were analysed by means of UPLC/MS/MS on a Xevo TQs micro Mass Spectrometer (Waters Corporation, USA).
The unbound fraction was determined as the ratio of the peak area in artificial CSF to that in brain, with correction for dilution factor according to equation (5)21, […]
((1/f ! ,!""!#$%& ) − 1) + 1/D where D = dilution factor in brain homogenate and fu,apparent is the measured free fraction of diluted brain homogenate.
3.9 Plasma protein binding
In brief, a 96 well equilibrium dialysis apparatus was used to determine the free fraction in plasma for inhibitor 1 (HT Dialysis LLC, Gales Ferry, CT). Membranes (12-14 kDA cut-off) were conditioned in deionised water for 60 minutes, followed by conditioning in 80:20 deionised water:ethanol for 20 minutes, and then rinsed in isotonic buffer before use. Female CD1 mouse plasma was removed from the freezer and allowed to thaw on the day of experiment. […] All samples were analysed by UPLC-MS/MS on a Xevo TQs micro Mass Spectrometer (Waters
Corporation, USA). The unbound fraction was determined as the ratio of the peak area in buffer to that in plasma.
Background: In equilibrium dialysis free small molecules cross a membrane that holds back macromolecules.

Series [2] can be described thus: Elimination in urine after intravenous administration. It is filed as in vivo, female C57BL/6 mouse. The note with it: mouse, 1 mg free base/kg i.v. As for the experimental part: Supplementary Table 8. Elimination of inhibitor 1 in urine following single
intravenous administration at 1 mg free base/kg to a female C57BL/6 mouse.
Time Absolute amount of drug Amount of drug in urine

Series [3] deals with KMO activity in the striatum. Put plainly: De novo 3-HK synthesis after intrastriatal [5-3H]-kynurenine. Format: in vivo, Sprague–Dawley rats. The method, then:
The prodrug (5 mg/kg) was administered intravenously to rats, immediately followed by an intrastriatal infusion of [^3H]-KYN. Tritiated KP metabolites were analysed after 1 h. A significant ~70% reduction (P < 0.01) in [^3H]-3-HK was observed (Fig. 3f) in parallel with minor increases in [^3H]-QUIN and […] (data not shown)—mirroring the results using a focal intracerebral injection of a KMO inhibitor[17].
The radioactive tracer method previously described by Guidetti et al. (1995)[31] was used to study acute KP metabolism in the brain in vivo. To this end, adult male Sprague–Dawley rats (weighing 270–300 g) were anesthetized with isoflurane using a vaporiser (induction dose 5%, maintenance dose 2%, v/v, in 100% oxygen) and placed in a stereotaxic frame. […] After thawing, tritiated KP metabolites were detected and analysed as described previously. The production of newly formed [^3H]-KYNA, [^3H]-3-HK and [^3H]-QUIN was expressed as a percentage of the total radioactivity recovered per striatum. […] The mobile phase was flown at 1.2 ml/min (Waters 515 HPLC Pump) through YMC-Pack Pro C18 (250 × 4.6 mm) column and detected with UV (Applied Biosystems 785A Absorbance Detector) at 254 nm then mixed with LabLogic FlowLogic U scintillation fluid flowing at 2.7 mL/min and radiation was detected (Berthold Technologies FlowStar LB514).

The fraction unbound is the share of the substance not bound to proteins or other matrix.

Values joined by “and” are separate entries in the source; they are usually repeats but may differ in a detail not shown here. Identical values can stand only once.

For the compound `Cc1cc2c(c(C)c1Cl)N(CC(=O)O)C(=O)CO2` [compound 1, (6-chloro-5,7-dimethyl-3-oxo-2,3-dihydro-4H-1,4-benzoxazin-4-yl) acetic acid], the fraction unbound at 5 h, 10 ug/mL in series [1] turned out to be 0.04. In addition, in series [2] (0 - 8 h), the “Absolute amount of drug recovered in urine” value came out at 8.67 µg and the “Amount of drug in urine recovered” value is recorded as 30.3 % Dose. In addition, in series [2] (8 - 24 h), the “Absolute amount of drug recovered in urine” value is on record as 0.15 µg and the “Amount of drug in urine recovered” value worked out at 0.5 % Dose.
Consider `CCOC(=O)CN1C(=O)COc2cc(C)c(Cl)c(C)c21` [1b], for which the “Reduction in [3H]-3-HK” value in series [3] (rat striatum, 5 mg/kg i.v., 1 h, vs vehicle) is reported as ~ 70%. Also, the “Percentage of [5-3H]-KYN that is metabolized into [3H]-3-HK” value in series [3] (striatum of awake rats, 1 h after 5 mg/kg i.v., single rats, listed as Prodrug 1b) is 0.72% and 0.39% and 1.91% and 0.11% and 1.44% and 0.83% and 2.24% and 1.06% and 1.38% and 0.19%.
